Experimental data from the NIST ThermoML archive (doi:10.1016/j.jct.2015.06.020).

Columns and labels:
[1] = Crystal; DTA
[2] = Molar enthalpy of transition or fusion; conditions: Crystal; DSC
[3] = molar heat capacity at constant pressure; conditions: 101.33 kPa, Crystal, Large sample (1 g) DSC

NC(=NO)c1nonc1N [4-amino-3-furazancarboxamidoxime]
Conditions	Molar enthalpy of transition or fusion [kcal/mol]	Normal melting temperature [°C]
[1]	–	180.41
[2]	8.99	–

[3]
Conditions	molar heat capacity at constant pressure [J/K/mol]
283.15 K	173.37
288.15 K	175.71
293.15 K	178.06
298.15 K	180.4
303.15 K	182.75
308.15 K	185.1
313.15 K	187.44
318.15 K	189.79
323.15 K	192.13
328.15 K	194.48
333.15 K	196.83
338.15 K	199.17
343.15 K	201.52
348.15 K	203.86
353.15 K	206.21
